Experimental data reported in paper PMC9137698, “Development of New Antimycobacterial Sulfonyl Hydrazones and 4-Methyl-1,2,3-thiadiazole-Based Hydrazone Derivatives” (Antibiotics, 2022).
Values after ≈ are worked out from the molar mass of the structure shown. Read-outs that look alike come from different tables or passages of the source.

What was measured:
[1] = system: HEK-293 (human embryonic kidney 293) cells; test: MTT cytotoxicity assay, HEK-293; assay type: cell-based; conditions: for IC50: Homo sapiens; for selectivity index SI, HEK-293 / selectivity indices (SI): ratio of IC50 to MIC; for selectivity indices (SI): both cell lines HEK-293 and CCL-1
Description: (§1) The cytostatic activity of the investigational compounds was determined using a standard MTT-based colorimetric assay for evaluating cell viability. HEK-293 and CCL-1 cells were harvested and seeded (100 µL/well) in 96-well plates at a density of 3 × 10^5. Following a 24 h incubation, the cells were treated with serial dilutions of the tested compounds in the concentration range of 200.0–12.5 µM. Following an exposure time of 72 h, a filter-sterilized MTT substrate solution (5 mg/mL in PBS) was added to each well of the culture plate. A further 1–4 h incubation allowed the formation of purple insoluble precipitates of the formazan dye. The latter was dissolved in an isopropyl alcohol solution containing 5% formic acid for absorbance measurement at 550 nm. The collected absorbance values were blanked against MTT-and isopropanol solution and normalized to the mean value of the untreated control (100% cell viability).
(§2) Semi-logarithmic “dose-response” curves were computed using nonlinear regression in GraphPad Prism® 8.0. The antiproliferative potential of the studied compounds was rated according to the calculated half-maximal inhibitory concentrations (IC50 values).

[2] = system: CCL-1 mouse fibroblast cell line; test: MTT cytotoxicity assay, CCL-1; assay type: cell-based; conditions: for IC50: Mus musculus; for selectivity index SI, CCL-1: ratio of IC50 to MIC
Description: as §1, §2

[3] = system: M. tuberculosis strain H37Rv; test: EUCAST broth microdilution MIC determination; assay type: cell-based, Mycobacterium tuberculosis
[4] = HEK293, 72 h, read-out: IC50 (µM) c HEK-293
[5] = CCL-1, 72 h, read-out: IC50 (µM) b CCL-1
[6] = Mycobacterium tuberculosis, H37RV, read-out: MIC a (µM)
[7] = Mycobacterium tuberculosis, H37RV, M. tuberculosis strain H37Rv, lowest concentration without visual growth, read-out: MIC a
[8] = M. tuberculosis strain H37Rv, lowest concentration without visual growth, read-out: MIC a

COc1ccc(/C=N/NS(=O)(=O)c2ccccc2)cc1OC [5j, N’-[(E)-(3,4-dimethoxyphenyl)methylidene]benzenesulfonohydrazide]
IC50 [1, 4]: 47.4 ± 6.8 µM | IC50 [2, 5]: 83.5 ± 7 µM | MIC [3, 6]: 0.321 µM (≈ 0.103 µg/mL)

Cc1nnsc1C(=O)N/N=C/c1c[nH]c2ccc(OCc3ccccc3)cc12 [3c, N’-((E)-[5-(benzyloxy)-1H-indol-3-yl]methylidene)-4-methyl-1,2,3-thiadiazole-5-carbohydrazide]
selectivity index SI, HEK-293 ([1]; as assigned in running text): 2242 | selectivity index SI, CCL-1 ([2]; as assigned in running text): 4093

O=S(=O)(N/N=C/C=C/c1ccccc1)c1ccccc1 [5k, N’-[(1E,2E)-3-phenylprop-2-en-1-ylidene]benzenesulfonohydrazid]
selectivity index SI, HEK-293 ([1]; as assigned in running text): 3380 | selectivity indices (SI) [1]: > 1000 | selectivity index SI, CCL-1 ([2]; as assigned in running text): 2216 | MIC [3, 7]: < 0.1 µM

COc1ccc2c(c1)c(/C=N/NS(=O)(=O)c1ccccc1)cn2C [5b, N’-[(E)-(5-methoxy-1-methyl-1H-indol-3-yl)methylidene]benzenesulfonohydrazide]
MIC [3, 8]: 0.2027 µM (≈ 0.0696 µg/mL) | MIC [3, 7]: < 0.4 µM

NNC(=O)c1ccncc1 [INH, isoniazid, reference compound]
MIC [3, 7]: 0.0343 µM (≈ 0.0047 µg/mL)

O=S(=O)(N/N=C/c1c[nH]c2ccc(Cl)cc12)c1ccccc1 [5d, N’-[(E)-(5-chloro-1H-indol-3-yl)methylidene]benzenesulfonohydrazide]
MIC [3, 7]: 0.167 µM (≈ 0.0557 µg/mL)

COc1cc(/C=N/NC(=O)c2snnc2C)ccc1O [3d, N’-[(E)-(4-hydroxy-3-methoxyphenyl)methylidene]-4-methyl-1,2,3-thiadiazole-5-carbohydrazide]
IC50 ([1]; HEK293, MTT, as assigned in running text, read-out: IC50, human embryonic kidney cells HEK-29): 257 µM | selectivity index SI, HEK-293 ([1]; as assigned in running text): 3516 | IC50 ([2]; Fibroblast, MTT, as assigned in running text, read-out: IC50, mouse fibroblast cells CCL-1): 218 µM | selectivity index SI, CCL-1 ([2]; as assigned in running text): 2979 | MIC [3, 7]: < 0.1 µM

O=S(=O)(N/N=C/c1c[nH]c2ccc(OCc3ccccc3)cc12)c1ccccc1 [5c]
IC50 [1, 4]: 32.3 ± 1.5 µM | IC50 [2, 5]: 321 ± 16.2 µM | MIC [3, 6]: 0.343 µM (≈ 0.139 µg/mL)

Cc1nnsc1C(=O)N/N=C/c1c(Cl)c2ccccc2oc1=O [3a, N’-[(E)-(4-chloro-2-oxo-2H-1-benzopyran-3-yl)methylidene]-4-methyl-1,2,3-thiadiazole-5-carbohydrazide]
MIC [3, 8]: 0.3914 µM (≈ 0.137 µg/mL) | MIC [3, 7]: < 0.4 µM

N’-[(E)-(3-hydroxy-4-methoxyphenyl)methylidene]benzenesulfonohydrazide [5h]
MIC [3, 8]: 0.3203 µM

O=S(=O)(N/N=C/c1ccc(Cl)cc1)c1ccccc1 [5i, N’-[(E)-(4-chlorophenyl)methylidene]benzenesulfonohydrazide]
IC50 [1, 4]: 100 ± 9.3 µM | IC50 [2, 5]: 131 ± 11.4 µM | MIC [3, 6]: 0.147 µM (≈ 0.0434 µg/mL)

O=[N+]([O-])c1ccc(/C=N/NS(=O)(=O)c2ccccc2)cc1 [5g, N’-[(E)-(4-nitrophenyl)methylidene]benzenesulfonohydrazide]
selectivity indices (SI) [1]: > 1000 | MIC [3, 7]: < 0.1 µM

O=[N+]([O-])c1ccccc1/C=N/NS(=O)(=O)c1ccccc1 [5f, N’-[(E)-(2-nitrophenyl)methylidene]benzenesulfonohydrazide]
MIC [3, 7]: 0.305 µM (≈ 0.0932 µg/mL)

COc1ccc2c(c1)c(/C=N/NC(=O)c1snnc1C)cn2C [3b, N’-[(E)-(5-methoxy-1-methyl-1H-indol-3-yl)methylidene]-4-methyl-1,2,3-thiadiazole-5-carbohydrazide]
MIC [3, 8]: 0.3294 µM (≈ 0.108 µg/mL) | MIC [3, 7]: < 0.4 µM

COc1ccc2[nH]cc(/C=N/NS(=O)(=O)c3ccccc3)c2c1 [5e, N’-[(E)-(5-methoxy-1H-indol-3-yl)methylidene]benzenesulfonohydrazide]
MIC [3, 7]: 0.165 µM (≈ 0.0542 µg/mL)
